Reference: patent US8586751B2, “Nicotinamide compounds useful as kinase modulators” (Bristol-Myers Squibb Company, priority 2009, dated 2013)
pIC50: −log10 of the molar value. Read-outs that look alike come from different tables or passages of the source.

Tests used:
human recombinant Btk = target: T1, human recombinant Btk (Homo sapiens, UniProt Q06187); assay: Human Recombinant Btk Enzyme Assay (LLE_BTK); format: biochemical
T1 construct: purchased Invitrogen Corporation
Procedure: Human Recombinant Btk Enzyme Assay
To V-bottom 384-well plates were added test compounds, human recombinant Btk (1 nM, Invitrogen Corporation), fluoresceinated peptide (1.5 μM), ATP (20 μM), and assay buffer (20 mM HEPES pH 7.4, 10 mM MgCl2, 0.015% Brij35 and 4 mM DTT in 1.6% DMSO), with a final volume of 30 μL. After incubating at room temperature for 60 min, the reaction was terminated by adding 45 μl of 35 mM EDTA to each sample. The reaction mixture was analyzed on the Caliper LABCHIP® 3000 (Caliper, Hopkinton, Mass.) by electrophoretic separation of the fluorescent substrate and phosphorylated product. Inhibition data were calculated by comparison to no enzyme control reactions for 100% inhibition and no inhibitor controls for 0% inhibition. Dose response curves were generated to determine the concentration required inhibiting 50% of kinase activity (IC50). Compounds were dissolved at 10 mM in dimethylsulfoxide (DMSO) and evaluated at eleven concentrations.
Using this assay, the following IC50 values derived by non-linear regression analysis were determined and compared to those values of certain compounds in U.S. Publication No. 2007/078136 and U.S. Publication No. 2008/045536.

[1] = system: Ramos B cells with beta-lactamase reporter gene under control of an NFAT response element; assay: NFAT-bla RA1 Reporter Assay (Ramos-NFAT); format: cell-based, human; conditions: read-out: IMM Ramos-NFAT (IC50)
Procedure: NFAT-bla RA1 Reporter Assay
Ramos B cells containing a stable integration of a beta-lactamase reporter gene under the control of an NFAT response element (NFAT-bla RA1, Invitrogen, K1434) at a density of 100×10^3 cells/well were incubated with test compounds at 37° C. for 30 min prior to stimulation with F(ab′)2 anti-human IgM (Jackson ImmunoResearch, 109-006-129) at 2.5 μg/ml for 4.5 hrs at 37° C. After stimulation, LiveBLAzer-FRET B/G substrate (CCF2/AM, or CCF4/AM, Invitrogen) was added to each well and incubated for 90 min at room temperature in the dark. Assay plates were read on an LJL Analyst, with raw emission values subtracted from a media-only blank containing substrate in assay media (no cells). The ratios of 460 nm/530 nm emission (405 nm excitation) were used to calculate the amount of stimulation.

T1 sequence (Q06187 whole entry): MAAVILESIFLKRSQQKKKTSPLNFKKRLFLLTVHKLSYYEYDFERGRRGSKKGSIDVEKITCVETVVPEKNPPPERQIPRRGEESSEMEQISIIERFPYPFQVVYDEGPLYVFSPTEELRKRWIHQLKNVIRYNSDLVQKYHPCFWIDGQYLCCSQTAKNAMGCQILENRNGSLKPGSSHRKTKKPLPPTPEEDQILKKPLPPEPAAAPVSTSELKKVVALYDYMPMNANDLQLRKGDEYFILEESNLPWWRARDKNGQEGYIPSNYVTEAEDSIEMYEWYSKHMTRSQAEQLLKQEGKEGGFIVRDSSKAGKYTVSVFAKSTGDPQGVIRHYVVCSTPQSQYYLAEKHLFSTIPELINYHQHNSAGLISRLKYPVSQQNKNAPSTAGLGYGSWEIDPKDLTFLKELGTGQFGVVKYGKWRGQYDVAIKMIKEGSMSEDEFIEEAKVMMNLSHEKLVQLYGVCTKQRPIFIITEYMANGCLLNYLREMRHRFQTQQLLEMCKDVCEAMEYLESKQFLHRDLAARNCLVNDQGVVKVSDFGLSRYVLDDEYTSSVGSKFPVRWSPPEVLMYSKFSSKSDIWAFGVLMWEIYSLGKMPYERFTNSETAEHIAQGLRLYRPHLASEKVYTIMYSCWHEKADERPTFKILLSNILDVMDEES

Compound	pIC50 (human recombinant Btk)	pIC50 ([1]; Homo sapiens, Ramos)	pIC50 [1]
CC(=O)N[C@@H]1CCCN(c2nc(Nc3ccc(N4CCN(C)CC4)cc3)c(C(N)=O)cc2F)C1 [Example 386]	8.00	6.96	–
CN1CCN(c2ccc(Nc3nc(N4CCC[C@@H](NC(=O)c5ccccc5)C4)c(F)cc3C(N)=O)cc2)CC1 [Example 388]	8.40	7.15	–
CN1CCN(c2ccc(Nc3nc(N4CCCCC4)c(F)cc3C(N)=O)cc2)CC1 [Example 393]	7.70	6.92	–
CN1CCN(c2ccc(Nc3nc(N4CCC(O)CC4)c(F)cc3C(N)=O)cc2)CC1 [Example 407]	7.52	6.92	–
CN1CCN(c2ccc(Nc3nc(N4CCC[C@@H](NC(=O)c5ccc(F)cc5)C4)c(F)cc3C(N)=O)cc2)CC1 [Example 412]	9.00	6.74	–
CN1CCN(c2ccc(Nc3nc(N4CCC[C@@H](NC(=O)c5ccc(F)c(F)c5)C4)c(F)cc3C(N)=O)cc2)CC1 [Example 413]	9.00	6.62	–
CN1CCN(c2ccc(Nc3nc(N4CCC[C@@H](NC(=O)c5ccc(N(C)C)cc5)C4)c(F)cc3C(N)=O)cc2)CC1 [Example 414]	8.70	6.64	–
CN1CCN(c2ccc(Nc3nc(N4CCC[C@@H](N(C)C(=O)c5ccccc5)C4)c(F)cc3C(N)=O)cc2)CC1 [Example 418]	8.70	6.42	–
CN1CCN(c2ccc(Nc3nc(N4CCC[C@@H](N5CCCC5=O)C4)c(F)cc3C(N)=O)cc2)CC1 [Example 419]	9.00	6.74	–
NC(=O)c1cc(F)c(N2CCC[C@@H](NC(=O)Nc3nccs3)C2)nc1Nc1ccc(N2CCOCC2)cc1 [Example 421]	8.70	7.40	–
NC(=O)c1cc(F)c(N2CCC[C@@H](NC(=O)c3ccccc3)C2)nc1Nc1ccc(N2CCOCC2)cc1 [Example 422]	7.70	6.92	–
NC(=O)c1cc(F)c(C2CCCC(OC(=O)c3ccccc3)C2)nc1Nc1ccc(N2CCOCC2)cc1 (stereo not drawn) [Example 430]	6.13	5.00	–
COc1ccc([C@H](C)N[C@H]2CCC[C@H](c3nc(Nc4ccc(N5CCOCC5)cc4)c(C(N)=O)cc3F)C2)cc1 [Example 435]	5.89	5.35	–
COc1ccc([C@H](C)N[C@H]2CCC[C@@H](c3nc(Nc4ccc(N5CCOCC5)cc4)c(C(N)=O)cc3F)C2)cc1 [Example 436]	5.66	5.10	–
COc1ccc([C@H](C)N[C@@H]2C=C(c3nc(Nc4ccc(N5CCOCC5)cc4)c(C(N)=O)cc3F)CCC2)cc1 [Example 437]	6.13	5.54	–
NC(=O)c1cc(F)c(N2CCC[C@@H](NC(=O)Nc3nccs3)C2)nc1Nc1ccc(N2CCOCC2)c(F)c1 [Example 451]	9.10	7.10	–
NC(=O)c1cc(F)c(N2CCC[C@@H](NC(=O)c3ccc(F)c(Cl)c3)C2)nc1Nc1ccc(F)cc1 [Example 456]	5.37	5.00	–
CN(C)CCc1ccc(Nc2nc(N3CCC[C@@H](NC(=O)Nc4nccs4)C3)c(F)cc2C(N)=O)cc1 [Example 458]	9.22	7.52	7.30
CN(C)CCc1ccc(Nc2nc(N3CCC[C@@H](NC(=O)Nc4nncs4)C3)c(F)cc2C(N)=O)cc1 [Example 462]	8.70	6.60	–
CN(C)CCc1ccc(Nc2nc(N3CCCC(F)(F)C3)c(F)cc2C(N)=O)cc1 [Example 475]	7.70	7.00	–
CN1CCN(c2ccc(Nc3nc(N4CCC[C@@H](NC(=O)c5ccccc5)C4)c(F)cc3C(N)=O)cc2F)CC1 [Example 479]	9.00	7.15	–
CN1CCN(c2ccc(Nc3nc(N4CCC[C@@H](NC(=O)Nc5nccs5)C4)c(F)cc3C(N)=O)cc2F)CC1 [Example 480]	9.70	7.40	–
CN1CCN(c2ccc(Nc3nc(N4CCC[C@@H](N5CCCC5=O)C4)c(F)cc3C(N)=O)cc2F)CC1 [Example 482]	8.70	6.77	–
CN1CCC(c2ccc(Nc3nc(N4CCCCC4)c(F)cc3C(N)=O)cc2)CC1 [Example 489]	8.00	7.00	–
CN1CCC(c2ccc(Nc3nc(N4CCC[C@@H](NC(=O)c5ccccc5)C4)c(F)cc3C(N)=O)cc2)CC1 [Example 490]	8.52	6.57	–

Compound	pIC50 (human recombinant Btk)	pIC50 ([1]; Homo sapiens, Ramos)	pIC50 [1]
CN1CCC(c2ccc(Nc3nc(N4CCC[C@@H](NC(=O)c5ccc(F)cc5)C4)c(F)cc3C(N)=O)cc2)CC1 [Example 491]	8.70	6.70	–
CN1CCC(c2ccc(Nc3nc(N4CCC[C@@H](NC(=O)Nc5nccs5)C4)c(F)cc3C(N)=O)cc2)CC1 [Example 492]	9.00	7.70	–
CN1CCC(c2ccc(Nc3nc(N4CCC[C@@H](NC(=O)Nc5nncs5)C4)c(F)cc3C(N)=O)cc2)CC1 [Example 493]	9.15	6.89	–
CN1CCC(C)(c2ccc(Nc3nc(N4CCC[C@@H](NC(=O)Nc5ncc(F)s5)C4)c(F)cc3C(N)=O)cc2)CC1 [Example 495]	9.00	7.10	–
NC(=O)c1cc(F)c(N2CCC[C@@H](NC(=O)c3ccccc3)C2)nc1Nc1ccc(N2CCS(=O)(=O)CC2)cc1 [Example 503]	8.15	7.10	–
CS(=O)(=O)c1ccc(Nc2nc(N3CCC[C@@H](NC(=O)c4ccccc4)C3)c(F)cc2C(N)=O)cc1 [Example 506]	8.70	6.82	–
CN(C)S(=O)(=O)c1ccc(Nc2nc(N3CCC[C@@H](NC(=O)c4ccccc4)C3)c(F)cc2C(N)=O)cc1 [Example 508]	9.10	6.85	–
CN1CCC(C)(c2ccc(Nc3nc(N4CCC[C@@H](NC(=O)c5ccccc5)C4)c(F)cc3C(N)=O)cc2)CC1 [Example 518]	8.70	7.52	–
CC(C)(C)OC(=O)N1CCCC(c2ccc(Nc3nc(N4CCCCC4)c(F)cc3C(N)=O)cc2)C1 (stereo not drawn) [Example 523]	5.43	5.00	–
CC(C)(C)OC(=O)N1CCC(O)(c2ccc(Nc3nc(N4CCCCC4)c(F)cc3C(N)=O)cc2)C(C)(C)C1 (stereo not drawn) [Example 524]	5.80	5.24	–
CN1CCN(C(=O)c2ccc(Nc3nc(N4CCC[C@@H](NC(=O)Nc5nccs5)C4)c(F)cc3C(N)=O)cc2)CC1 [Example 544]	9.05	6.25	–
NC(=O)c1cc(F)c(N2CCC[C@@H](NC(=O)Nc3nccs3)C2)nc1Nc1ccc(CCO)cc1 [Example 545]	8.70	6.80	–
CS(=O)(=O)c1ccc(Nc2nc(N3CCC[C@@H](NC(=O)Nc4nccs4)C3)c(F)cc2C(N)=O)cc1 [Example 546]	8.52	6.64	–
NC(=O)c1cc(F)c(N2CCC[C@@H](NC(=O)Nc3nccs3)C2)nc1Nc1ccc(CCN2CCC2)cc1 [Example 547]	9.00	7.30	–
NC(=O)c1cc(F)c(N2CCC[C@@H](NC(=O)Nc3nccs3)C2)nc1Nc1ccc(CCn2ccnc2)cc1 [Example 548]	8.70	6.57	–
NC(=O)c1cc(F)c(N2CCC[C@@H](NC(=O)Nc3nccs3)C2)nc1Nc1ccc(CCN2CCCC2)cc1 [Example 549]	9.15	7.52	–
CC(C)(C)NCCc1ccc(Nc2nc(N3CCC[C@@H](NC(=O)Nc4nccs4)C3)c(F)cc2C(N)=O)cc1 [Example 550]	8.70	6.92	–
C[N+](C)([O-])CCc1ccc(Nc2nc(N3CCC[C@@H](NC(=O)Nc4nccs4)C3)c(F)cc2C(N)=O)cc1 [Example 552]	9.00	5.27	–
CN1CCC(C)(c2ccc(Nc3nc(N4CCC[C@@H](NC(=O)Nc5nccs5)C4)c(F)cc3C(N)=O)cc2)CC1 [Example 554]	9.15	7.40	–
NC(=O)c1cc(F)c(N2CCC[C@@H](NC(=O)Nc3nccs3)C2)nc1Nc1ccc(C2CCOCC2)cc1 [Example 555]	8.52	6.72	–
CN1CCCC(c2ccc(Nc3nc(N4CCC[C@@H](NC(=O)Nc5nccs5)C4)c(F)cc3C(N)=O)cc2)C1 (stereo partly drawn) [Example 557]	8.70	7.22	–
CN1CCCC(c2ccc(Nc3nc(N4CCC[C@@H](NC(=O)Nc5nncs5)C4)c(F)cc3C(N)=O)cc2)C1 (stereo partly drawn) [Example 558]	8.70	6.42	–
CN1CCCC(c2ccc(Nc3nc(N4CCC[C@@H](NC(=O)Nc5nnc(C(F)(F)F)s5)C4)c(F)cc3C(N)=O)cc2)C1 (stereo partly drawn) [Example 559]	8.70	7.15	–
CN1CCCC(c2ccc(Nc3nc(N4CCC[C@@H](NC(=O)Nc5nnc(C6CC6)s5)C4)c(F)cc3C(N)=O)cc2)C1 (stereo partly drawn) [Example 560]	9.10	6.74	–
